Source: PMC10349806 (Nature Communications, 2023)
Where a chain is given by its changes, count along the chain named. “And” between values parts separate entries of the source, which are not always exact repeats. Equal entries are not always repeated.

How the values were obtained:
[1] = target: T1, PfCRT variant E95A (Plasmodium falciparum, UniProt Q9N623, A220S/E95A/I356T/K76T/M74I/N326S/N75E/Q271E/R371I); assay: CQ uptake assay, oocytes expressing E95A; assay type: cell-based
T1 sequence (Q9N623 1-424 M74I/N75E/K76T/E95A/A220S/Q271E/N326S/I356T/R371I): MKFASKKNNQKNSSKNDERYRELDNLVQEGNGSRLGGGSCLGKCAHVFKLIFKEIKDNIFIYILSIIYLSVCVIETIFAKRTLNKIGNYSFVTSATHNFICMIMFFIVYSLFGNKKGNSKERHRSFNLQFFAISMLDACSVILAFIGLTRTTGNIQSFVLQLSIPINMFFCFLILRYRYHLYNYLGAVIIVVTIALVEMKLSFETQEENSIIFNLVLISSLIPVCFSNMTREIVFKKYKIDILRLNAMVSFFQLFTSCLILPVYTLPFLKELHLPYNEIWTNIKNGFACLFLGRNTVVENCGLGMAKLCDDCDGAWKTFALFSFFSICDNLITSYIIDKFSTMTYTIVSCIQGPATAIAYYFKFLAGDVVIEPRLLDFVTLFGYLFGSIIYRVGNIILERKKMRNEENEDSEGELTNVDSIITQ
Protocol: (§1) Site-directed mutagenesis of PfCRT^Dd2 was performed as described using the megaprimer method with overlap extension[21],[54]. The primer pairs used are listed in Supplementary Table 6. Please note that a codon-optimized and oocyte-adapted version of PfCRT^Dd2 was used[22] (Supplementary Fig. 16). The resulting DNA fragment was cloned into the SP64T expression vector and verified by sequencing.
Oocytes were obtained as described previously. Briefly, adult (>2 years old) female X. laevis frogs (NASCO) were anesthetized in a cooled solution of ethyl 3-amino benzoate methanesulfonate (0.1%, w/v), followed by a surgical removal of parts of the ovary. The ovary lobes were carefully dissected and small pieces of oocytes were incubated in Ca^2+-free ND96 buffer (96 mM NaCl, 2 mM KCl, 1 mM MgCl2 buffered with 5 mM HEPES/NaOH, pH 7.5) supplemented with collagenase D (0.1%, w/v; Roche), BSA (0.5%, w/v), and 9 mm Na2HPO4 at 18 °C for 14-16 h while gentle shaking. After incubation, the oocytes were carefully washed several times with ND96 buffer (96 mM NaCl, 2 mM KCl, 1.8 mM CaCl2, 1 mM MgCl2 buffered with 5 mM HEPES/NaOH, pH 7.5) supplemented with 100 mg l^−1 gentamycin). Defolliculated and healthy-looking stage V-VI oocytes were manually selected for RNA microinjection. The RNA was generated as following: The codon-optimized sequences of PfCRT variants were cloned into the pSP64T expression vector. After vector linearization using the restriction endonucleases BamHI or SalI (New England Biolabs), transcription was performed using the in vitro SP6 mMessage mMachine Kit (Ambion)[34]. The obtained RNA was kept at −80 °C and diluted with nuclease-free water to a concentration of 0.6 μg μl^−1. […]
Drug uptake assays were performed as described previously[21],[22],[24],[34]. […] The radioactivity of each sample was measured using a liquid scintillation analyzer Tri-Carb 4910 TR (PerkinElmer). Oocytes that were injected with water instead of RNA were analyzed in parallel, representing the uptake of a drug by diffusion and/or endogenous permeation pathways. […]

[2] = target: T2, PfCRT variant CD3 (F3A, E29A, F52A, Y238A, F340A, E399A, E407A) (Plasmodium falciparum, UniProt Q9N623, A220S/E29A/E399A/E407A/F340A/F3A/F52A/I356T/K76T/M74I/N326S/N75E/Q271E/R371I/Y238A); assay: CQ uptake assay, oocytes expressing CD3; assay type: cell-based
T2 sequence (Q9N623 1-424 F3A/E29A/F52A/M74I/N75E/K76T/A220S/Y238A/Q271E/N326S/F340A/I356T/R371I/E399A/E407A): T1 sequence (Q9N623 1-424 M74I/N75E/K76T/E95A/A220S/Q271E/N326S/I356T/R371I) with F3A, E29A, F52A, A95E, Y238A, F340A, E399A, E407A
Protocol: as §1
Oocytes were obtained as described previously. Briefly, adult (>2 years old) female X. laevis frogs (NASCO) were anesthetized in a cooled solution of ethyl 3-amino benzoate methanesulfonate (0.1%, w/v), followed by a surgical removal of parts of the ovary. The ovary lobes were carefully dissected and small pieces of oocytes were incubated in Ca^2+-free ND96 buffer (96 mM NaCl, 2 mM KCl, 1 mM MgCl2 buffered with 5 mM HEPES/NaOH, pH 7.5) supplemented with collagenase D (0.1%, w/v; Roche), BSA (0.5%, w/v), and 9 mm Na2HPO4 at 18 °C for 14-16 h while gentle shaking. After incubation, the oocytes were carefully washed several times with ND96 buffer (96 mM NaCl, 2 mM KCl, 1.8 mM CaCl2, 1 mM MgCl2 buffered with 5 mM HEPES/NaOH, pH 7.5) supplemented with 100 mg l^−1 gentamycin). Defolliculated and healthy-looking stage V-VI oocytes were manually selected for RNA microinjection. The RNA was generated as following: The codon-optimized sequences of PfCRT variants were cloned into the pSP64T expression vector. After vector linearization using the restriction endonucleases BamHI or SalI (New England Biolabs), transcription was performed using the in vitro SP6 mMessage mMachine Kit (Ambion)[34]. The obtained RNA was kept at −80 °C and diluted with nuclease-free water to a concentration of 0.6 μg μl^−1. Precision-bore glass capillary tubes (3.5-inch glass capillaries; Drummond Scientific Co.) were pulled on a vertical puller (P-87 Flaming/Brown micropipette puller, Sutter Instrument Co.), graduated, and placed on a microinjector (Nanoject II Auto-Nanoliter Injector, Drummond Scientific Co.). 50 nl of nuclease-free water alone (control oocytes) or 50 nl of 0.6 μg μl^−1 RNA were injected under stereomicroscopic control. Injected oocytes were incubated for 46–72 h at 18 °C with twice-daily buffer changes before usage in experiments.
Drug uptake assays were performed as described previously[21],[22],[24],[34]. […] The direction of radio-labeled drug transport is here from the mostly acidic extracellular solution (pH 4.5 or 6.0, as indicated) into the oocyte cytosol (pH ∼ 7.2), which corresponds to the efflux of drug from the acidic digestive vacuole (pH 5.2) into the parasite cytoplasm (pH 7.2). The topology of PfCRT in the oolemma is such that both the N- and C-terminus face the extracellular milieu[3],[22]. In the parasite, the N- and C-terminus face the lumen of the digestive vacuole. CQ uptake kinetics were performed by incubating oocytes in ND96 buffer adjusted to a pH of 4.5, 5.0, 5.5, or 6.0 and supplemented with 50 nM [^3H]CQ and one of 7 different CQ concentrations (10 µM, 50 µM, 100 µM, 200 µM, 300 µM, 400 µM, 500 µM CQ). The reaction was stopped at the 60 min time point, which is in the linear uptake range[22],[34] (Supplementary Fig. 17). For determination of the amount of drug uptake for each oocyte, the reaction medium was removed and the oocytes were washed three times with 2 ml of ice-cold ND96 buffer. Each oocyte was individually transferred to a scintillation vial containing 5% sodium dodecyl sulfate (200 μl) for lysis. The radioactivity of each sample was measured using a liquid scintillation analyzer Tri-Carb 4910 TR (PerkinElmer). Oocytes that were injected with water instead of RNA were analyzed in parallel, representing the uptake of a drug by diffusion and/or endogenous permeation pathways. The resulting value represents the “background“ level of drug accumulation in oocytes (in-depth discussion in[22]). […]

For `CCN(CC)CCCC(C)Nc1ccnc2cc(Cl)ccc12` (stereo not drawn) [CQ, chloroquine], the “Activity at pH 4.5” value ([1]; 50 µM CQ, 1 h, mean ± SEM) was 1.21 ± 0.20 pmol h-1 oocyte-1, the “Activity at pH 6.0” value ([1]; 50 µM CQ, 1 h, mean ± SEM) was 2.74 ± 0.74 pmol h-1 oocyte-1 and the R-value ([1]; CQ transport at pH 4.5 / pH 6.0) was 0.41 ± 0.11. The “Activity at pH 4.5” value ([2]; CD3, 50 µM CQ, 1 h, mean ± SEM) was 1.78 ± 0.46 pmol h-1 oocyte-1, the “Activity at pH 6.0” value ([2]; CD3, 50 µM CQ, 1 h, mean ± SEM) was 2.73 ± 0.57 pmol h-1 oocyte-1 and the R-value ([2]; CD3, CQ transport at pH 4.5 / pH 6.0) was 0.62 ± 0.06. For the same compound, the “CD3 transport activity pH 4.5” value ([2]; pH 4.5, single replicates, Fig 1d left) was 0.66 pmol oocyte-1 h-1 and 2.21 pmol oocyte-1 h-1 and 2.46 pmol oocyte-1 h-1, the “CD3 R-value” ([2]; pH 4.5 vs pH 6.0, Fig 1d left) was 0.47 and 0.72 and 0.65 and the “CD3 transport activity pH 6.0” value ([2]; pH 6.0, single replicates, Fig 1d left) was 1.39 pmol oocyte-1 h-1 and 3.05 pmol oocyte-1 h-1 and 3.76 pmol oocyte-1 h-1.
